Results from patent US20210205329A1 (The University of North Carolina at Chapel Hill, priority 2018, published 2021).
Values joined by “and” are separate entries in the source; they are usually repeats but may differ in a detail not shown here. Identical values can stand only once.

Legend:
MCP-1 [1] = assay: MCP-1 ELISA in VTA, amygdala and hypothalamus of female and male P rats; assay type: in vivo, rat; settings: 15 mg/kg IP
Procedure: (Two-way ANOVA: F (1,28)=20.92, P<0.0001), and Hypothalamus [female (27%) and male (32%)] (Two-way ANOVA: F (1,28)=31.55, P<0.0001).
(§1) ELISA. Brain tissue micropunches were lysed with Cellyte MT and the extracts were assayed for protein content by the BCA procedure (Pierce) and for MCP-1 using the rat MCP-1 ELISA kit (Raybiotech—ERC-MCP-1-CL; Norcross, Ga., USA) or for fracktalkine using the rat fractalkine ELISA kit (Raybiotech—ERC-CX3CL1-CL; Norcross, Ga., USA) as per manufacturer's instructions.
To determine if the effects of 3α,5α-THP on MCP-1 were selective for P rat NAc, the effects of 3α,5α-THP administration in VTA, Amygdala and Hypothalamus of both female and male P rats was examined.

CX3CL1 = CX3CL1 expression in human macrophages; assay type: cell-based; settings: 1 μM
TLR7 signal in P rat NAc = TLR7 signal in P rat NAc after systemic 3α,5α-THP (immunoblot); assay type: in vivo; settings: 15 mg/kg I.P.
Procedure: Neuropsychopharmacology 40(8): 1549-1559; Aurelian L, et al. (2016). Transl Psychiatry 6: e815). Systemic administration of 3α,5α-THP (15 mg/kg, I.P.) to naïve female P rats inhibited the expression of TLR7 (40%), pIRF7 (40%), and TRAF6 (40%) in P rat NAc, with no effect on IRF3. Similar results were obtained in a separate study of the male P rats.
(§2) Next, potential sex differences were directly examined in baseline or 3α,5α-THP inhibition of MCP-1 and pIRF7 expression in female vs. male P rat NAc (FIG. 9). […] Systemic administration of 3α,5α-THP (15 mg/kg, I.P.) to naïve female and male P rats inhibited the expression of MCP-1 (40% in female rat NAc; 25% in male rat NAc). Likewise, 3α,5α-THP administration to naïve female and male P rats inhibited the expression of pIRF7 to the same extent, (55% in female rat NAc; 55% in male rat NAc).

MCP-1 [2] = assay: MCP-1 ELISA in P rat NAc; assay type: in vivo; settings: 15 mg/kg I.P., 45 min
Procedure: as §1, §2

TLR3 signal = assay: Poly(I:C)-activated TLR3 signaling in RAW264.7 cells; assay type: cell-based, mouse; settings: 1 μM; Poly-IC 25 μg/ml; 24 hrs

## CC(=O)[C@H]1CC[C@H]2[C@@H]3CC[C@H]4C[C@H](O)CC[C@]4(C)[C@H]3CC[C@]12C [3α,5α-THP, (3α,5α)3-hydroxypregnan-20-one]
MCP-1 [1]; female P rats
  reduction of MCP-1 levels in Amygdala: 47%
  reduction of MCP-1 levels in Hypothalamus: 27%
  reduction of MCP-1 levels in VTA: 27%
MCP-1 [1]; male P rats
  reduction of MCP-1 levels in Amygdala: 58%
  reduction of MCP-1 levels in Hypothalamus: 32%
  reduction of MCP-1 levels in VTA: 21%
CX3CL1
  expression of the anti-inflammatory cytokine CX3CL1: increases expression
TLR7 signal in P rat NAc; male P rats
  inhibition of TRAF6: 45%
TLR7 signal in P rat NAc; naïve female P rats
  effect on IRF3 in NAc: no effect
  inhibition of TLR7 expression in NAc: 40%
  inhibition of TRAF6 expression in NAc: 40%
  inhibition of pIRF7 expression in NAc: 40% and 55%
TLR7 signal in P rat NAc; naïve male P rats
  inhibition of pIRF7 expression in NAc: 55%
MCP-1 [2]; naïve female P rats
  inhibition of MCP-1 expression in NAc: 40%
MCP-1 [2]; naïve male P rats
  inhibition of MCP-1 expression in NAc: 25%
TLR3 signal
  effect of Poly(I:C) on IP-10 (CXCL10) expression: not altered
